Patent publication US9114117B2, “Compounds effective against cancer” (Ingo Schmidt-Wolf, priority 2009, dated 2015)

Legend:
cell line LAM-53 [1] = assay: Relative viability of cell line LAM-53 by FACS analysis; type: cell-based; conditions: culture = 100%; for viability at 30 µM: 30 μM EA
Description: (§1) The peripheral blood lymphocytes (PBLs) out of the PBMCs were selected for the FACS analysis (FIG. 5). A toxicity of the cells induced a shift from viable cells to apoptotic cells (FIG. 6, 7). If the drug or its concentration is very toxic, the cells appear addition-ally in a higher extent necrotic.
(§2) DMSO, the solvent of EA and cic, was given to the cell line LAM-53 in a ratio of 1:100, as control. The values are related to the culture-control and expressed as mean±standard error of the mean (SEM) taken from 5 separate measurements. In FIG. 7 (A) samples were measured after 24, 48 and 72 h. After 0 h, the time of execution, the relative viability was defined as 100% for all samples. In FIG. 7 (B) the relative viability values for the samples measured after 24, 48 and 72 h.

PBMCs = assay: Relative apoptosis of PBMCs by FACS analysis; type: cell-based; conditions: culture = 0%
Description: as §1
as §2, with “the PBMCs” for “the cell line LAM-53”, “FIG. 6” for “FIG. 7”, “relative apoptosis” for “relative viability”, “as 0%” for “as 100%”

cell line DHL-4 [2] = assay: Relative viability of cell line DHL-4 by FACS analysis; type: cell-based; conditions: culture = 100%; for viability at 10 µM: 10 μM cic; for viability at 30 µM: 30 μM EA
Description: as §1
as §2, with “line DHL-4” for “line LAM-53”, “FIG. 9” for “FIG. 7”

cell line LAM-53 [3] = assay: Relative apoptosis of cell line LAM-53 by FACS analysis; type: cell-based; conditions: culture = 0%
Description: as §1
as §2, with “FIG. 8” for “FIG. 7”, “relative apoptosis” for “relative viability”, “as 0%” for “as 100%”

[4] = Relative viability of PBMCs by FACS analysis; type: cell-based; conditions: culture = 100%
Description: as §1
as §2, with “the PBMCs” for “the cell line LAM-53”, “FIG. 5” for “FIG. 7”, “as […])” for “as 100%”

[5] = per day; cited from earlier work
cell line Raji [6] = assay: Relative apoptosis of cell line Raji by FACS analysis; type: cell-based; conditions: culture = 0%
Description: as §1
as §2, with “line Raji” for “line LAM-53”, “FIG. 14” for “FIG. 7”, “relative apoptosis” for “relative viability”, “as 0%” for “as 100%”

cell line DHL-4 [7] = assay: Relative apoptosis of cell line DHL-4 by FACS analysis; type: cell-based; conditions: culture = 0%
Description: as §1
as §2, with “line DHL-4” for “line LAM-53”, “FIG. 10” for “FIG. 7”, “relative apoptosis” for “relative viability”, “as 0%” for “as 100%”

cell line OPM-2 [8] = assay: Relative apoptosis of myeloma cell line OPM-2 by FACS analysis; type: cell-based; conditions: culture = 0%
Description: as §1
as §2, with “line OPM-2” for “line LAM-53”, “FIG. 12” for “FIG. 7”, “relative apoptosis” for “relative viability”, “as 0%” for “as 100%”

cell line OPM-2 [9] = assay: Relative viability of myeloma cell line OPM-2 by FACS analysis; type: cell-based; conditions: Homo sapiens, culture = 100%; for viability at 10 µM: 10 μM cic; for viability at 30 µM: 30 μM EA
Description: as §1
as §2, with “line OPM-2” for “line LAM-53”, “FIG. 11” for “FIG. 7”

cell line Raji [10] = assay: Relative viability of cell line Raji by FACS analysis; type: cell-based; conditions: Homo sapiens, culture = 100%; for viability at 10 µM: 10 μM cic; for viability at 30 µM: 30 μM EA
Description: as §1
as §2, with “line Raji” for “line LAM-53”, “FIG. 13” for “FIG. 7”

[11] = cited from earlier work

Compound: Cc1cc(C2CCCCC2)n(O)c(=O)c1 [cic, Ciclopirox olamine]
- relative viability (cell line LAM-53 [1]; 10 μM cic, 48 h): 52.9%
- viability at 10 µM (cell line LAM-53 [1]; 24 h, 10 μM cic): 76.2%
- viability at 10 µM (cell line LAM-53 [1]; 72 h, 10 μM cic): 32.4%
- relative apoptosis (PBMCs; 10 μM cic, 24 h): 0.4%
- relative apoptosis (PBMCs; 10 μM cic, 48 h): 1.4%
- relative apoptosis (PBMCs; 10 μM cic, 72 h): 3.3%
- viability at 10 µM (cell line DHL-4 [2]; 24 h): 93%
- viability at 10 µM (cell line DHL-4 [2]; 48 h): 90.3%
- viability at 10 µM (cell line DHL-4 [2]; 72 h): 55.9%
- relative apoptosis (cell line LAM-53 [3]; 10 μM cic, 24 h): 12.2%
- relative apoptosis (cell line LAM-53 [3]; 10 μM cic, 48 h): 34.4%
- relative apoptosis (cell line LAM-53 [3]; 10 μM cic, 72 h): 51.2%
- viability at 24 h, 10 μM ([4]; 10 μM cic, 24 h): 99.3%
- viability at 48 h, 10 μM ([4]; 10 μM cic, 48 h): 98.3%
- viability at 72 h, 10 μM ([4]; 10 μM cic, 72 h): 94.4%
- maximum concentration in human systemic tolerability studies [5]: 275 µM
- relative apoptosis (cell line Raji [6]; 10 μM cic, 24 h): 14.1%
- relative apoptosis (cell line Raji [6]; 10 μM cic, 48 h): 31.0%
- relative apoptosis (cell line Raji [6]; 10 μM cic, 72 h): 30.0%
- relative apoptosis (cell line DHL-4 [7]; 10 μM cic, 24 h): 5.8%
- relative apoptosis (cell line DHL-4 [7]; 10 μM cic, 48 h): 5.0%
- relative apoptosis (cell line DHL-4 [7]; 10 μM cic, 72 h): 30.8%
- relative apoptosis (cell line OPM-2 [8]; 10 μM cic, 24 h): 4.0%
- relative apoptosis (cell line OPM-2 [8]; 10 μM cic, 48 h): 15.3%
- relative apoptosis (cell line OPM-2 [8]; 10 μM cic, 72 h): 34.8%
- viability at 10 µM (cell line OPM-2 [9]; 24 h): 93.6%
- viability at 10 µM (cell line OPM-2 [9]; 48 h): 72.5%
- viability at 10 µM (cell line OPM-2 [9]; 72 h): 29.4%
- viability at 10 µM (cell line Raji [10]; 24 h): 83.8%
- viability at 10 µM (cell line Raji [10]; 48 h): 45.6%
- viability at 10 µM (cell line Raji [10]; 72 h): 21.7%

Compound: C=C(CC)C(=O)c1ccc(OCC(=O)O)c(Cl)c1Cl [EA, 2-[2,3-dichloro-4-(2-methylidenebutanoyl)phenoxy]acetic acid]
- viability at 30 µM (cell line LAM-53 [1]; 24 h): 96.7%
- viability at 30 µM (cell line LAM-53 [1]; 48 h): 96.2%
- viability at 30 µM (cell line LAM-53 [1]; 72 h): 91%
- relative apoptosis (PBMCs; 30 μM EA, 24 h): 1.3%
- relative apoptosis (PBMCs; 30 μM EA, 48 h): 3.9%
- relative apoptosis (PBMCs; 30 μM EA, 72 h): 7.6%
- viability at 30 µM (cell line DHL-4 [2]; 24 h): 91.7%
- viability at 30 µM (cell line DHL-4 [2]; 48 h): 96%
- viability at 30 µM (cell line DHL-4 [2]; 72 h): 97.6%
- relative apoptosis (cell line LAM-53 [3]; 30 μM EA, 24 h): 0.7%
- relative apoptosis (cell line LAM-53 [3]; 30 μM EA, 48 h): 1.5%
- relative apoptosis (cell line LAM-53 [3]; 30 μM EA, 72 h): 1.8%
- viability at 24 h, 30 μM ([4]; 30 μM EA, 24 h): 98.9%
- viability at 48 h, 30 μM ([4]; 30 μM EA, 48 h): 94.9%
- viability at 72 h, 30 μM ([4]; 30 μM EA, 72 h): 89.5%
- relative apoptosis (cell line Raji [6]; 30 μM EA, 24 h): 2.4%
- relative apoptosis (cell line Raji [6]; 30 μM EA, 48 h): 4.8%
- relative apoptosis (cell line Raji [6]; 30 μM EA, 72 h): 9.8%
- relative apoptosis (cell line DHL-4 [7]; 30 μM EA, 24 h): 6.7%
- relative apoptosis (cell line DHL-4 [7]; 30 μM EA, 48 h): 2.0%
- relative apoptosis (cell line DHL-4 [7]; 30 μM EA, 72 h): 1.2%
- relative apoptosis (cell line OPM-2 [8]; 30 μM EA, 24 h): 2.3%
- relative apoptosis (cell line OPM-2 [8]; 30 μM EA, 48 h): 7.5%
- relative apoptosis (cell line OPM-2 [8]; 30 μM EA, 72 h): 13.4%
- viability at 30 µM (cell line OPM-2 [9]; 24 h): 96.4%
- viability at 30 µM (cell line OPM-2 [9]; 48 h): 84.2%
- viability at 30 µM (cell line OPM-2 [9]; 72 h): 58%
- viability at 30 µM (cell line Raji [10]; 24 h): 95.7%
- viability at 30 µM (cell line Raji [10]; 48 h): 90.7%
- viability at 30 µM (cell line Raji [10]; 72 h): 78.9%
- solubility in most organic solvents ([11]; e.g. alcohols, chloroform, and benzene): soluble
- solubility in water ([11]; water): slightly soluble

Compound: Cc1cc(C2CCCCC2)n(O)c(=O)c1 [Ciclopirox, 6-cyclohexyl-1-hydroxy-4-methyl-1,2-dihydropyridin-2-one]
- solubility in methanol ([11]; methanol): soluble
